The values below come from US20230321171A1, “ANTI-COCCIDIAL COMPOSITION COMPRISING MANGOSTEEN AND USES THEREOF” (CJ CHEILJEDANG CORPORATION, priority 2020, published 2023).

For test [1], the system named is Eimeria tenella. In words: In vivo anticoccidial efficacy evaluation in broilers challenge-inoculated with Eimeria tenella. Details: species or system Ross broilers. The procedure:
An in vivo anticoccidial efficacy evaluation test was performed in an animal experiment facility in Gyeongsangnam-do, South Korea. One-day-old female Ross broilers were individually weighed and randomly divided into groups to use in an experiment. Matters and conditions for experimental design were described in Table 2.
(§1) A breeding farm was managed according to the Korean poultry breeding management guidelines. Cages and the breeding farm were cleaned and disinfected before starting the test. The temperature of […] and the humidity of 40 to 50% of the breeding farm were maintained, and it was continuously monitored.
(§2) For the feed, Korea Feed Al-choi product was used, and each material (salinomycin (Cheil Bio Cheilsalino-60 product), xanthone (Sigma Aldrich X600 product), and the mangosteen extract prepared in Example 1-2 above) was added to the feed, respectively, at a concentration described in Table 3 below to be self-mixed. Antibiotics and supplements were not used in general feed and mixed feed, and no anticoccidial agent other than each material was added. Broilers were fed ad libitum throughout the experiment period. After putting 20 1-day-age broilers in cages randomly placed for each of the control group or test group and breeding, general feed was fed for 7 days, and then the mixed feed prepared above was ingested by dividing by control group or test group.
The feed formulation administered to the control group (negative control group or positive control group) and test group and whether coccidiosis was induced by Eimeria tenella were described in Table 3 below. 20 1-day-old broilers were put in a cage randomly arranged for each test group, and after 7 days of feeding the general feed, the formulated feed as described in Table 3 was divided into each test group and ingested.
14-day-old broilers were orally inoculated with 10,000 oocysts (90% sporulated Eimeria tenella oocysts) per individual to induce coccidiosis.
The anticoccidial efficacy by test group designed in Example 1-3 above was shown as an anticoccidial index (ACI), and the anticoccidial index was calculated by Equation 2 below. The ACI score is out of 200 points, and the higher the ACI score, the more excellent the anticoccidial ability, and when it is 120 points or more to less than 140 points, it is determined that it is effective as an anticoccidial material, and when it is 140 points or more to less than 160 points, it is determined that it is excellent as an anticoccidial material, and when it is 160 points or more, it is determined that the anticoccidial effect is very excellent. (Luis Miguel De Pablos et al., Anticoccidial activity of maslinic acid against infection with Eimeria tenella in chickens, Parasitol Res, 2010)
Anticoccidial index (ACI)=(survival rate after challenge inoculation (%))+(daily weight gain compared to negative control group (RWG, %))−(lesion score×10)−(fecal oocyst excretion amount index) (Equation 2)
1) Survival rate: the number of dead individuals was recorded daily, and post mortem autopsy was performed to determine a cause of mortality, and the number of individuals who died due to causes other than coccidiosis was excluded. The survival rate (%) up to the 8th day after challenge inoculation was used for anticoccidial index calculation.
2) Daily weight gain: body weight was measured for each cage before challenge inoculation with a protozoan into an individual and at the 7th day after challenge inoculation, and the difference was divided by the number of days to calculate the daily weight gain (ADG, g/d). ‘Daily weight gain compared to the negative control group (RWG, %)’which was calculated by dividing the daily weight gain (ADG, average daily gain; g/d) of each experimental group by the weight gain (ADG, g/d) of the non-infected negative control group and multiplying by 100 was used for anticoccidial index calculation. […]

The next test relates to Eimeria acervulina. In words: Protozoan (sporozoite) direct killing ability, Eimeria acervulina. In kind it is cell-based. Particulars: for Eimeria acervulina protozoal death rate (%): compared to PBS-treated negative control group; for Minimum concentration for killing 100% protozoa (ppm), Eimeria acervulina: tested 1 to 500 ppm. The procedure: (§3) In the present example, protozoan (sporozoite) direct killing ability evaluation was conducted against 3 representative Eimeria kinds known to be infected in most farms (E. tenella, E. acervulina, E. maxima).
(§4) A certain amount of oocysts of each protozoan was put in a tube containing glass beads and pulverized, and then to remove the crushed oocyst cell wall and other debris, internal sporocysts were purified using the percoll density gradient, and washed with PBS solution. A reagent comprising sodium taurocholic acid (Sigma aldrich, USA) and trypsin (Gibco, USA), respectively, was treated to sporocysts of Eimeria tenella, Eimeria acervulina and Eimeria maxima for excystation and they were incubated, and then they were washed with PBS solution once and protozoa were obtained.
(§5) After reacting the mangosteen pericarp extract, epicatechin, alpha-mangostin, xanthone and anticoccidial agents, salinomycin and diclazuril (hereinafter, material) with 3 kinds of Eimeria protozoa at various concentrations of 1 to 500 ppm, respectively, only alive protozoa (sporozoites) were counted through microscopic observation. Then, the death rate (%) of the protozoa when each material was treated compared to the PBS-treated negative control group was calculated and shown in Table 8 to Table 10 and Table 12, respectively, and the minimum concentration which directly killed the protozoa by 100% was shown in Table 11 below.

For test [2], the system named is Eimeria tenella. The test can be described thus: Protozoan (sporozoite) direct killing ability, Eimeria tenella. In kind it is cell-based. Particulars: for Eimeria tenella protozoal death rate (%): compared to PBS-treated negative control group; for Minimum concentration for killing 100% protozoa (ppm), Eimeria tenella: tested 1 to 500 ppm; for Eimeria tenella protozoal death rate: Table 12 comparison with individual components. The procedure:
as §3, §4, §5

The next test has as its system Eimeria maxima. In words: Protozoan (sporozoite) direct killing ability, Eimeria maxima. In kind it is cell-based. Conditions: for Eimeria maxima protozoal death rate (%): compared to PBS-treated negative control group; for Minimum concentration for killing 100% protozoa (ppm), Eimeria maxima: tested 1 to 500 ppm. The procedure: as §3, §4, §5
Test [3] in a line: Broiler growth effect (daily weight gain) due to intake in feed. Particulars: formulated feed 60 ppm for 7 days. In kind it is in vivo, Ross broilers. The procedure: An efficacy evaluation test was performed in an animal experiment facility in Gyeongsangnam-do, South Korea. One-day-old female Ross broilers were individually weighed and randomly divided into groups to use in an experiment. Matters and conditions for experimental design were described in Table 16.
as §1
as §2, with “A1-choi” for “Al-choi”, “17” for “3”, “group. The feed formulation administered to the control group (negative control group or positive control group) and test group was described in Table 17 below.” for “group.”
The body weight before feeding and on the 7th day after feeding the feed of Table 16 above into individuals was measured, and the difference was divided by the number of days to calculate the daily weight gain (ADG, g/d), and the result was shown in Table 18. For comparison between 6 treatment groups, Duncan post-test multiple comparison method was used, and statistical significance was verified using a SAS statistical program, and the result was shown in Table 18.

For test [4], the system named is Eimeria tenella. In words: Protozoan (sporozoite) direct killing ability, Eimeria tenella. In kind it is cell-based. Particulars: Table 15, method similar to Example 2-1.

As for `CC[C@@H](C(=O)[C@@H](C)[C@@H](O)[C@H](C)[C@@H]1O[C@@H]([C@@H](CC)C(=O)O)CC[C@@H]1C)[C@H]1O[C@]2(C=C[C@@H](O)[C@]3(CC[C@@](C)([C@H]4CC[C@](O)(CC)[C@H](C)O4)O3)O2)[C@H](C)C[C@@H]1C` [Salinomycin, salinomycin], the “Intermediate body weight (14-day-old, before challenge inoculation)” value with Eimeria tenella [1] (formulated feed 60 ppm from day 7, female Ross broilers) came to 455.9. Further, the Appendix lesion score in the test on Eimeria tenella [1] (formulated feed 60 ppm, 8th day after challenge inoculation, scale of 0-4) is 2.7. Besides, the “End body weight (21-day-old, on the 7th day of challenge inoculation)” value in the test on Eimeria tenella [1] (formulated feed 60 ppm, 10,000 E. tenella oocysts oral at 14 days) is listed as 917.6. The “Day 14~Day 21 ADG (daily weight gain)” value with Eimeria tenella [1] (formulated feed 60 ppm, E. tenella infected broilers) was determined as 62.46 g/day. Moreover, the “Anticoccidial index (ACI)” value with Eimeria tenella [1] (formulated feed 60 ppm, Equation 2, out of 200 points) worked out at 141. Moreover, in the test with Eimeria tenella [1] (formulated feed 60 ppm, feces of 6~8th day of challenge inoculation, McMaster chamber), the Oocyst excretion amount/gram is recorded as 1.30E+08 /gram. The “RWG (daily weight gain compared to the negative control group)” value with Eimeria tenella [1] (formulated feed 60 ppm, relative to non-infected negative control group) was determined as 94%. Moreover, the “Eimeria acervulina protozoal death rate (%)” value amounted to 0% in the test with Eimeria acervulina (1 ppm); 0% in the test with Eimeria acervulina (5 ppm); 0% in the test on Eimeria acervulina (10 ppm); 0% in the test with Eimeria acervulina (50 ppm); 60% in the test on Eimeria acervulina (100 ppm); 73% in the test with Eimeria acervulina (125 ppm). Besides, the “Eimeria acervulina protozoal death rate (%)” value with Eimeria acervulina (250 ppm) and in the test with Eimeria acervulina (500 ppm) was 100% throughout. Besides, the “Minimum concentration for killing 100% protozoa (ppm), Eimeria acervulina” value with Eimeria acervulina was found to be 250 ppm. For the same compound, the “Eimeria tenella protozoal death rate (%)” value in the test with Eimeria tenella [2] (1 ppm) stood at 0%; with Eimeria tenella [2] (5 ppm), 0%; with Eimeria tenella [2] (10 ppm), 0%; in the test with Eimeria tenella [2] (50 ppm), 0%; with Eimeria tenella [2] (100 ppm) it was 46%; in the test with Eimeria tenella [2] (125 ppm), 74%. Also, the “Eimeria tenella protozoal death rate (%)” value in the test on Eimeria tenella [2] (250 ppm) and in the test with Eimeria tenella [2] (500 ppm) was 100% each time. In the test with Eimeria tenella [2], the “Minimum concentration for killing 100% protozoa (ppm), Eimeria tenella” value is 500 ppm. The “Eimeria maxima protozoal death rate (%)” value in the test on Eimeria maxima (1 ppm) was 0%; with Eimeria maxima (5 ppm), 0%; in the test with Eimeria maxima (10 ppm), 0%; with Eimeria maxima (50 ppm) it was 0%; in the test with Eimeria maxima (100 ppm) it was 59%; in the test with Eimeria maxima (125 ppm), 65%. In addition, the figures for the “Eimeria maxima protozoal death rate (%)” value in the test on Eimeria maxima (250 ppm) and in the test on Eimeria maxima (500 ppm) were 97% and 100%, respectively. Besides, the “Minimum concentration for killing 100% protozoa (ppm), Eimeria maxima” value in the test with Eimeria maxima is listed as 500 ppm. For the same compound, in test [3], the “Daily weight gain (ADG)” value was 46.86 g/day. Moreover, the “End-initial body weight (7 days, g)” value in test [3] turned out to be 328 g. Also, the “End body weight” value in test [3] (non-infected broilers) is recorded as 526 g.

Take `Oc1cc(O)c2c(c1)O[C@H](c1ccc(O)c(O)c1)[C@H](O)C2` [Epicatechin, epicatechin]: the “Eimeria tenella protozoal death rate” value in the test with Eimeria tenella [2] (3.9 ppm), in the test with Eimeria tenella [2] (7.8 ppm) and in the test with Eimeria tenella [2] (15.6 ppm) was 0% throughout. Further, the “Minimum concentrataion of killing protozoa 100% (ppm)” value with Eimeria tenella [4] is ≥500 ppm.

For the compound `N#CC(c1ccc(Cl)cc1)c1c(Cl)cc(-n2ncc(=O)[nH]c2=O)cc1Cl` (centres unmarked) [Diclazuril, diclazuril], the “Eimeria acervulina protozoal death rate (%)” value in the test with Eimeria acervulina (1 ppm) is 0%; in the test with Eimeria acervulina (5 ppm), 0%; in the test with Eimeria acervulina (10 ppm), 0%; with Eimeria acervulina (50 ppm), 0%; in the test on Eimeria acervulina (100 ppm), 0%; in the test with Eimeria acervulina (125 ppm), 23%. In addition, the “Eimeria acervulina protozoal death rate (%)” value with Eimeria acervulina (250 ppm) was 12%; in the test with Eimeria acervulina (500 ppm), 44%. Moreover, the “Minimum concentration for killing 100% protozoa (ppm), Eimeria acervulina” value in the test on Eimeria acervulina is recorded as 500 ppm. For the same compound, the “Eimeria tenella protozoal death rate (%)” value in the test on Eimeria tenella [2] (1 ppm), in the test with Eimeria tenella [2] (5 ppm), with Eimeria tenella [2] (10 ppm), in the test with Eimeria tenella [2] (50 ppm), in the test on Eimeria tenella [2] (100 ppm) and in the test on Eimeria tenella [2] (125 ppm) was 0% throughout. For the same compound, the entries for the “Eimeria tenella protozoal death rate (%)” value in the test with Eimeria tenella [2] (250 ppm) and in the test on Eimeria tenella [2] (500 ppm) were 35% and 44%, respectively. Besides, the “Minimum concentration for killing 100% protozoa (ppm), Eimeria tenella” value with Eimeria tenella [2] is >500 ppm. Further, the “Eimeria maxima protozoal death rate (%)” value in the test on Eimeria maxima (1 ppm), in the test on Eimeria maxima (5 ppm), in the test on Eimeria maxima (10 ppm), in the test on Eimeria maxima (50 ppm), in the test on Eimeria maxima (100 ppm) and in the test on Eimeria maxima (125 ppm) was 0% throughout. In addition, the figures for the “Eimeria maxima protozoal death rate (%)” value with Eimeria maxima (250 ppm) and in the test with Eimeria maxima (500 ppm) were 16% and 30%, respectively. For the same compound, the “Minimum concentration for killing 100% protozoa (ppm), Eimeria maxima” value in the test on Eimeria maxima was >500 ppm.
